This note sets out measurements from US20250000842A1, “Formulation of Resiniferatoxin” (Sorrento Therapeutics, Inc., priority 2017, published 2025).

This data set is described as follows: Solubility comparison: recovery of RTX by HPLC after ambient and cold (5° C.) storage in various solutions. To be noted: unmodified aqueous solution. The format is physicochemical. The method, then: Independently of the formulations described in Example 1, a group of 12 surfactants was tested to compare the recovery of RTX based on HPLC analysis of samples following ambient and cold (5° C.) storage.

Regarding `C=C(C)[C@]12C[C@@H](C)[C@@]34O[C@](Cc5ccccc5)(O[C@@H]1[C@@H]3C=C(COC(=O)Cc1ccc(O)c(OC)c1)C[C@]1(O)C(=O)C(C)=C[C@@H]41)O2` [RTX, resiniferatoxin], the “solubility in water (in words)” value is “insolubility in water”.
